Source: patent publication US6340680B1, “Oxazinoquinolones useful for the treatment of viral infections” (Pharmacia and Upjohn Company, priority 1999, dated 2002)

Columns and labels:
Assay type in all cases: biochemical
HCMV polymerase = molecular target: T1, HCMV polymerase (Human cytomegalovirus, UniProt P08546); experiment: HCMV polymerase assay (scintillation proximity assay, modified version); conditions: modified SPA assay, compounds diluted in 100% DMSO, 4.5 mM DTT
T1 construct: made in house; host or cells: recombinant baculovirus-infected SF-9 cells
Procedure: (§1) The HCMV polymerase assay is performed using a scintillation proximity assay (SPA) as described in several references, such as N. D. Cook, et al., Pharmaceutical Manufacturing International, pages 49-53 (1992); K. Takeuchi, Laboratory Practice, September issue (1992); U.S. Pat. No. 4,568,649 (1986); which are incorporated by reference herein. Reactions are performed in 96-well plates. The assay is conducted in 100 μl volume with 5.4 mM HEPES (pH 7.5), 11.7 mM KCl, 4.5 mM MgCl2, 0.36 mg/ml BSA, and 90 nM ^3H-dTTP. Assays are run with and without CHAPS, (3-[(3-Cholamidopropyl)-dimethylammonio]-1-propane-sulfonate) at a final concentration of 2 mM. HCMV polymerase is diluted in enzyme dilution buffer containing 50% glycerol, 250 mM NaCl, 10 mM HEPES (pH 7.5), 100 μg/ml BSA, and 0.01% sodium azide. The HCMV polymerase, which is expressed in recombinant baculovirus-infected SF-9 cells and purified according to literature procedures, is added at 10% (or 10 μl) of the final reaction volume, i.e., 100 μl. Compounds are diluted in 50% DMSO and 10 μl are added to each well. Control wells contain an equivalent concentration of DMSO. Unless noted otherwise, reactions are initiated via the addition of 6 nM biotinylated poly(dA)-oligo(dT) template/primer to reaction mixtures containing the enzyme, substrate, and compounds of interest. Plates are incubated in a 25 C or 37 C H2O bath and terminated via the addition of 40 μl/reaction of 0.5 M EDTA (pH 8) per well. Reactions are terminated within the time-frame during which substrate incorporation is linear and varied depending upon the enzyme and conditions used, i.e., 30 min. for HCMV polymerase. Ten μl of streptavidin-SPA beads (20 mg/ml in PBS/10% glycerol) are added following termination of the reaction. Plates are incubated 10 min. at 37 C, then equilibrated to room temperature, and counted on a Packard Topcount. Linear regressions are performed and IC50's are calculated using computer software.
A modified version of the above HCMV polymerase assay is performed as described above, but with the following changes: Compounds are diluted in 100% DMSO until final dilution into assay buffer. In the previous assay, compounds are diluted in 50% DMSO. 4.5 mM dithiotherotol (DTT) is added to the polymerase buffer. […] Other viral polymerase assays are performed using procedures similar to those described above.

VZV polymerase = VZV polymerase (Varicella-zoster virus, UniProt P09252); experiment: VZV polymerase assay (similar procedure)
Procedure: as §1, with “Unless noted otherwise, reactions are initiated via the addition of 6 nM biotinylated poly(dA)-oligo(dT) template/primer to reaction mixtures containing the enzyme, substrate, and compounds of interest. Plates are incubated in a 25 C or 37 C H2O bath and terminated via the addition of 40 μl/reaction of 0.5 M EDTA (pH 8) per well. Reactions are terminated within the time-frame during which substrate incorporation is linear and varied depending upon the enzyme and conditions used, i.e., 30 min. for HCMV polymerase. Ten μl of streptavidin-SPA beads (20 mg/ml in PBS/10% glycerol) are added following termination of the reaction.” left out, “software. […]” for “software.”

HSV polymerase = HSV polymerase (Human herpesvirus 1, UniProt P04293); experiment: HSV polymerase assay (similar procedure)
Procedure: as §1, with “Unless noted otherwise, reactions are initiated via the addition of 6 nM biotinylated poly(dA)-oligo(dT) template/primer to reaction mixtures containing the enzyme, substrate, and compounds of interest. Plates are incubated in a 25 C or 37 C H2O bath and terminated via the addition of 40 μl/reaction of 0.5 M EDTA (pH 8) per well. Reactions are terminated within the time-frame during which substrate incorporation is linear and varied depending upon the enzyme and conditions used, i.e., 30 min. for HCMV polymerase. Ten μl of streptavidin-SPA beads (20 mg/ml in PBS/10% glycerol) are added following termination of the reaction.” left out, “software. […]” for “software.”

T1 sequence (P08546 whole entry): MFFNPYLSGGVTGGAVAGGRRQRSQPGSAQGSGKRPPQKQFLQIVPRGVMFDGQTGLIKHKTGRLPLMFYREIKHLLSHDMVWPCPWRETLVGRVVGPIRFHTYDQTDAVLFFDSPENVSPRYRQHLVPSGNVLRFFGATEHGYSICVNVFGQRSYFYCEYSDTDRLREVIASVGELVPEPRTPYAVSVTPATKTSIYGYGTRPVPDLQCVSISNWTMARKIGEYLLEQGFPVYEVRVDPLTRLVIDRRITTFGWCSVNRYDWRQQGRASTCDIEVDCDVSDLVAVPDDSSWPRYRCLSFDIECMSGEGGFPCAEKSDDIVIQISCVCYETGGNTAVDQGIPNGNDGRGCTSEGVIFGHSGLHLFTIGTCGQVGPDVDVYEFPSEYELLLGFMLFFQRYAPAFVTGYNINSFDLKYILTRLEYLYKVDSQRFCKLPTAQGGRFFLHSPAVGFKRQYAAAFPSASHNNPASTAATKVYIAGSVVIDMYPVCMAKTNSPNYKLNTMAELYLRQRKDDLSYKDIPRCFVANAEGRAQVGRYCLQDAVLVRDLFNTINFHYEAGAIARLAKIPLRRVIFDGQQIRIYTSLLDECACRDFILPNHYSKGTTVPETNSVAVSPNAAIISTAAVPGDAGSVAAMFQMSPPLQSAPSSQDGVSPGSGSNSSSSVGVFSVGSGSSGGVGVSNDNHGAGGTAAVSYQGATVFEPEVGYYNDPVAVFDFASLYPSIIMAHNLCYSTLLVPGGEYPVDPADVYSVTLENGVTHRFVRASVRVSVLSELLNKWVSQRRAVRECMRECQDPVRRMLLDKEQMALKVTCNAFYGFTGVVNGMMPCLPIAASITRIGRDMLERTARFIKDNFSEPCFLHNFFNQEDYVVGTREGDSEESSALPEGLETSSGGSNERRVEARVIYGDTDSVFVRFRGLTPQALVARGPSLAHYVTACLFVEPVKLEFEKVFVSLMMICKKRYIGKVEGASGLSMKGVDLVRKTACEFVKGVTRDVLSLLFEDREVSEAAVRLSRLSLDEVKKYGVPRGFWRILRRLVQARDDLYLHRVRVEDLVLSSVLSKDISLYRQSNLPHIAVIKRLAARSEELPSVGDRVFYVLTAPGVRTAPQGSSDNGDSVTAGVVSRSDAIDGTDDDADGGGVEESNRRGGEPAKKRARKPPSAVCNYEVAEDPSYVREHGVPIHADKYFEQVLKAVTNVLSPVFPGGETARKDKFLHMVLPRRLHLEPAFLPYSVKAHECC
Sequence of VZV polymerase (P09252 whole entry): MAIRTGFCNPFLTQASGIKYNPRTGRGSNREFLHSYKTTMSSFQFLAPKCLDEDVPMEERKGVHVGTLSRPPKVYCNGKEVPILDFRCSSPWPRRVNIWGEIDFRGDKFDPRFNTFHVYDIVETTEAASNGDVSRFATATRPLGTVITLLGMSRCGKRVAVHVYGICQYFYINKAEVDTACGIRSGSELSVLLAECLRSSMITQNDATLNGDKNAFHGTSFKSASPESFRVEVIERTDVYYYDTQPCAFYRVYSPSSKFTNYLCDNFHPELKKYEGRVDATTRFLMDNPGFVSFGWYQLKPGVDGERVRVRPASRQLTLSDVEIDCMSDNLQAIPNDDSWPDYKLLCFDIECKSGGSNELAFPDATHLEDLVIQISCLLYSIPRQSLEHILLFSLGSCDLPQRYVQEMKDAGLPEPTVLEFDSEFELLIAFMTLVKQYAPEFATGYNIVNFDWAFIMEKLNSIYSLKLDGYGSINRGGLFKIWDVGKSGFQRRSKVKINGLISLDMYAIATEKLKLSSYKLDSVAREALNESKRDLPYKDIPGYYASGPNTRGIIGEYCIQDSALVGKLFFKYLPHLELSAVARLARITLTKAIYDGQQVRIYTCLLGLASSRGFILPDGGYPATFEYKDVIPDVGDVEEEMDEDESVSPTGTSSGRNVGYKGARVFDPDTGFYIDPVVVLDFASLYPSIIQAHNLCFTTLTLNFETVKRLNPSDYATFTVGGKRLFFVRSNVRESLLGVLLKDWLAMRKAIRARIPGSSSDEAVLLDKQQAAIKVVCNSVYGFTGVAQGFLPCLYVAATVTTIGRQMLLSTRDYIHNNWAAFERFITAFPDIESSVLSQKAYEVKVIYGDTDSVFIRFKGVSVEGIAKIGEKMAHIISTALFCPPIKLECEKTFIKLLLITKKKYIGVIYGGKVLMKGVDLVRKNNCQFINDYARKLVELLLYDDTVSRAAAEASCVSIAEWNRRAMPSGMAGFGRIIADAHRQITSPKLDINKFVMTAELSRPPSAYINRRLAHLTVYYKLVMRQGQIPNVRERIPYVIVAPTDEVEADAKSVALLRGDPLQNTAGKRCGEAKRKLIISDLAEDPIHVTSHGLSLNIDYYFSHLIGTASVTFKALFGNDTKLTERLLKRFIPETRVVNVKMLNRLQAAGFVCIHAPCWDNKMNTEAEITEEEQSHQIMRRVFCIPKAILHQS
Sequence of HSV polymerase (P04293 whole entry): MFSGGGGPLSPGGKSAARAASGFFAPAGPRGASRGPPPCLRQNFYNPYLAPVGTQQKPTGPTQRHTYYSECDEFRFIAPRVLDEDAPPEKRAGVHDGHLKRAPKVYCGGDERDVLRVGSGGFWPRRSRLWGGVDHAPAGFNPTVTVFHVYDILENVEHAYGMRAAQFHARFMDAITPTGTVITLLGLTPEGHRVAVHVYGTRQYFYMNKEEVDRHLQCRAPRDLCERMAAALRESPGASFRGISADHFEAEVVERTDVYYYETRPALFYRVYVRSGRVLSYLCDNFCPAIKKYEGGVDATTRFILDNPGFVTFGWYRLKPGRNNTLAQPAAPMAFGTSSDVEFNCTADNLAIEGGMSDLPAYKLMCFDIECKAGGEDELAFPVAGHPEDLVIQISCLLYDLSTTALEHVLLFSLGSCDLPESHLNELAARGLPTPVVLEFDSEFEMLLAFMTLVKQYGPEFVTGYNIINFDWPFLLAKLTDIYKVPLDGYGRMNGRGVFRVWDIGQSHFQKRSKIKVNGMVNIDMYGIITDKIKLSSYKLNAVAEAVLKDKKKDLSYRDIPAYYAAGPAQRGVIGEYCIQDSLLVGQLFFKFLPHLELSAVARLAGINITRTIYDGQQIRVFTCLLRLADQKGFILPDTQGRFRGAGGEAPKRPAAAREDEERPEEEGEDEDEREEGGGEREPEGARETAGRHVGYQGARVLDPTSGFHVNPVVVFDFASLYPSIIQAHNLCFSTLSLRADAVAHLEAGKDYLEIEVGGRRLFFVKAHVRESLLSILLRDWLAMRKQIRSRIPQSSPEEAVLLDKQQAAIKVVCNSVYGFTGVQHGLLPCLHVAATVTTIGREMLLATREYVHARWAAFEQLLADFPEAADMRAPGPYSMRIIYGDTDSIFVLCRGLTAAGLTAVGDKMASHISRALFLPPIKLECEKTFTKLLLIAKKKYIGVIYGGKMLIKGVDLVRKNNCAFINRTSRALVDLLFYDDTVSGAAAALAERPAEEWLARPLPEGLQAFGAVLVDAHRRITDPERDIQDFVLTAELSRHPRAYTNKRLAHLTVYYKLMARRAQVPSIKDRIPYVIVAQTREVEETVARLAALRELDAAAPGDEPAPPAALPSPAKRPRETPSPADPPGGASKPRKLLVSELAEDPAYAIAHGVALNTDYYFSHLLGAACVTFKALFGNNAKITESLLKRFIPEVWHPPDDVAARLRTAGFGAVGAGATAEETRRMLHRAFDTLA

SMILES | IC50 (HCMV polymerase) [nM] | IC50 (VZV polymerase) [nM] | IC50 (HSV polymerase) [nM]
O=C(NCc1ccc(Cl)cc1)c1cn2c3c(cc(CCCO)cc3c1=O)OCC2 [Example 3A, N-(4-Chlorobenzyl)-9-(3-hydroxypropyl)-7-oxo-2,3-dihydro-7H-[1,4]oxazino[2,3,4-ij]quinoline-6-carboxamide] | < 310 | 210 | 440
CCCc1cc2c3c(c1)c(=O)c(C(=O)NCc1ccc(Cl)cc1)cn3CCO2 [Example 3B, N-(4-Chlorobenzyl)-7-oxo-9-propyl-2,3-dihydro-7H-[1,4]oxazino[2,3,4-ij]quinoline-6-carboxamide] | 1800 | – | –
O=C(NCc1ccc(Cl)cc1)c1cn2c3c(cc(C#CCO)cc3c1=O)OCC2 [Example 2, N-(4-Chlorobenzyl)-9-(3-hydroxy-1-propynyl)-7-oxo-2,3-dihydro-7H-[1,4]oxazino[2,3,4-ij]quinoline-6-carboxamide] | 1200 | – | –
O=C(NCc1ccc(Cl)cc1)c1cn2c3c(cc(CN4CCOCC4)cc3c1=O)OCC2 [Example 1, N-(4-Chlorobenzyl)-9-(4-morpholinylmethyl)-7-oxo-2,3-dihydro-7H-[1,4]oxazino[2,3,4-ij]quinoline-6-carboxamide] | 480 | – | –
